Data as given in the SangsterLogP compilation.

Assay: method code SF-AS, from DOI: 10.1111/j.2042-7158.1992.tb05470.x, PMID: 1357140
Details: pH 7.4

CC(C)NC(=S)NS(=O)(=O)c1cnccc1NC1CCCCCC1
logD: 0.96
